# Like-named read-outs stand apart in the source and are kept apart here.
# How the values were obtained:
# [1] = system: Puccinia triticina; Synonym: Puccinia recondite f. Sp. Tritici; assay: Wheat Brown Rust (PUCCRT) disease control; format: in vivo; conditions: Puccinia triticina, topical; for pest or weed control at 100 ppm: rate 100 ppm; for pest or weed control at 121.5 g/ha: rate 121.5 g/H
# How it was run: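 Brown rust on first-leaf Yuma wheat: spore inoculation before or after spray application (acetone/Triton X-100 solution, or EC with Trycol in track spray), overnight 100% RH at 22 °C, disease developed at 24 °C. Severity scored 0–100% and converted to percent control against untreated.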
# [2] = system: Mycosphaerella graminicola; Anamorph: Septoria tritici; assay: Leaf Blotch of Wheat (SEPTTR) disease control; format: in vivo; conditions: Zymoseptoria tritici; for pest or weed control at 100 ppm: rate 100 ppm; for pest or weed control at 121.5 g/ha: rate 121.5 g/H
# How it was run: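 Percent disease control is derived from Septoria tritici leaf blotch severity (0 to 100 percent) on treated versus untreated wheat seedlings. Plants get fungicide spray to run-off, with inoculation either preceding or following application, then humid incubation at 20° C.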
# [3] = system: Phakopsora pachyrhizi; assay: Asian Soybean Rust (PHAKPA) disease control; format: in vivo; conditions: Phakopsora pachyrhizi, topical
# Experimental: Technical grades of materials were dissolved in acetone, which were then mixed with nine volumes of water containing 0.011% Tween 20. The fungicide solutions were applied onto soybean seedlings using an automated booth sprayer to run-off. All sprayed plants were allowed to air dry prior to further handling.
# Soybean plants (variety Williams 82) were grown in soil-less Metro mix, with one plant per pot. Two weeks old seedlings were used for testing. Plants were inoculated either 3 days prior to or 1 day after fungicide treatments. Plants were incubated for 24 h in a dark dew room at 22° C. and 100% RH then transferred to a growth room at 23° C. for disease to develop. Disease severity was assessed on the sprayed leaves.
# [4] = 24 h, 1 Day Protectant, read-out: PUCCRT 1 DP disease control
# [5] = 72 h, 3 Day Curative, read-out: PUCCRT 3 DC disease control
# [6] = 24 h, 1 Day Protectant, read-out: SEPTTR 1 DP disease control
# [7] = 72 h, 3 Day Curative, read-out: SEPTTR 3 DC disease control
# [8] = 24 h, 1 Day Protectant, read-out: Disease Control PHAKPA 1DP
# [9] = 72 h, 3 Day Curative, read-out: Disease Control PHAKPA 3DC
melting point,Structure (SMILES),"pest or weed control at 100 ppm [1, 4] [%]","pest or weed control at 121.5 g/ha [1, 4] [%]","pest or weed control at 100 ppm [1, 5] [%]","pest or weed control at 121.5 g/ha [1, 5] [%]","pest or weed control at 100 ppm [2, 6] [%]","pest or weed control at 121.5 g/ha [2, 6] [%]","pest or weed control at 100 ppm [2, 7] [%]","pest or weed control at 121.5 g/ha [2, 7] [%]","pest or weed control at 25 ppm [3, 8] [%]","pest or weed control at 25 ppm [3, 9] [%]"
215 to 217 °C,CCCO[C@@H]1[C@@H](Cc2ccc(F)cc2)CCC[C@H](N)C(=O)O[C@H]1C.Cl,–,–,–,–,–,–,–,–,–,–
108 to 110 °C,Cc1ccc(C[C@H]2CCC[C@H](NC(=O)OC(C)(C)C)C(=O)O[C@@H](C)[C@@H]2OCc2ccccc2)cc1 [Compound F229],–,–,–,–,–,–,–,–,–,–
–,COc1ccnc(C(=O)N[C@H]2CCC[C@H](C)[C@@H](Oc3ccccc3)[C@H](C)OC2=O)c1OCOC(=O)C(C)C [Compound F155],80 to 100,80 to 100,80 to 100,80 to 100,80 to 100,80 to 100,80 to 100,80 to 100,80 to 100,80 to 100
67 to 73 °C,CC(C)CO[C@@H]1[C@@H](Cc2ccc(F)cc2F)CCC[C@H](N)C(=O)O[C@H]1C.Cl,–,–,–,–,–,–,–,–,–,–
87 to 89 °C,COCN(C(=O)OC(C)(C)C)[C@H]1CCC[C@H](CCC(C)C)[C@@H](OCCCC(F)(F)F)[C@H](C)OC1=O [Compound F203],–,–,–,–,–,–,–,–,–,–
210 °C (dec.),Cc1ccc(C[C@H]2CCC[C@H](N)C(=O)O[C@@H](C)[C@@H]2OCC2CC2)cc1.Cl,–,–,–,–,–,–,–,–,–,–
86 to 89 °C,Cc1ccc(C[C@H]2CCC[C@H](NC(=O)OC(C)(C)C)C(=O)O[C@@H](C)[C@@H]2OCC2CC2)cc1 [Compound F236],–,–,–,–,–,–,–,–,–,–
200 to 210 °C (dec.),Cc1ccc(C[C@H]2CCC[C@H](N)C(=O)O[C@@H](C)[C@@H]2Oc2ccccc2)cc1.Cl,–,–,–,–,–,–,–,–,–,–
–,COc1ccnc(C(=O)N[C@H]2CCC[C@H](CCC(C)C)[C@@H](OCC3CC3)[C@H](C)OC2=O)c1OCOC(C)=O [Compound F91],80 to 100,80 to 100,80 to 100,80 to 100,80 to 100,80 to 100,80 to 100,80 to 100,80 to 100,80 to 100
–,CCOCC(=O)OCOc1c(OC)ccnc1C(=O)N[C@H]1CCC[C@H](CCOC)[C@@H](OCC(C)C)[C@H](C)OC1=O [Compound F187],80 to 100,80 to 100,80 to 100,80 to 100,80 to 100,80 to 100,80 to 100,80 to 100,80 to 100,80 to 100
–,COc1ccnc(C(=O)N[C@H]2CCC[C@H](CCC(C)C)[C@@H](OCCCC(F)(F)F)[C@H](C)OC2=O)c1OCOC(C)=O [Compound F93],80 to 100,80 to 100,80 to 100,0 to 80,80 to 100,80 to 100,80 to 100,80 to 100,80 to 100,0 to 80
233 to 237 °C,C[C@@H]1OC(=O)[C@@H](N)CCC[C@H](Cc2ccc(F)cc2F)[C@H]1OCc1ccccc1.Cl,–,–,–,–,–,–,–,–,–,–
–,CCOCC(=O)OCOc1c(OC)ccnc1C(=O)N[C@H]1CCC[C@H](CC)[C@@H](Oc2ccccc2)[C@H](C)OC1=O [Compound F189],80 to 100,80 to 100,80 to 100,80 to 100,80 to 100,80 to 100,80 to 100,80 to 100,80 to 100,80 to 100
190 to 195 °C (dec.),C[C@@H]1OC(=O)[C@@H](N)CCC[C@H](Cc2ccc(F)cc2F)[C@H]1OCCCc1ccccc1.Cl,–,–,–,–,–,–,–,–,–,–
110 to 114 °C,Cc1ccc(C[C@H]2CCC[C@H](N(C(=O)OC(C)(C)C)C(=O)OC(C)(C)C)C(=O)O[C@@H](C)[C@@H]2OCC(C)C)cc1 [Compound F232],–,–,–,–,–,–,–,–,–,–
–,COCC[C@H]1CCC[C@H](NC(=O)c2nccc(OC)c2OCOC(C)=O)C(=O)O[C@@H](C)[C@@H]1OCC(C)C [Compound F132],80 to 100,80 to 100,80 to 100,80 to 100,80 to 100,80 to 100,80 to 100,80 to 100,80 to 100,80 to 100
144 to 145 °C,C[C@@H]1OC(=O)[C@@H](NC(=O)OC(C)(C)C)CCC[C@H](C)[C@H]1Oc1ccccc1 [Compound F224],–,–,–,–,–,–,–,–,–,–
–,COc1ccnc(C(=O)N[C@H]2CCC[C@H](CCC(C)C)[C@@H](OCC3CC3)[C@H](C)OC2=O)c1OCOC(=O)C(C)C [Compound F149],80 to 100,80 to 100,80 to 100,80 to 100,80 to 100,80 to 100,80 to 100,80 to 100,80 to 100,0 to 80
108 to 115 °C,COCN(C(=O)OC(C)(C)C)[C@H]1CCC[C@H](Cc2ccc(F)cc2F)[C@@H](OCc2ccccc2)[C@H](C)OC1=O [Compound F254],–,–,–,–,–,–,–,–,–,–
–,COc1ccnc(C(=O)N[C@H]2CCC[C@H](C)[C@@H](Oc3ccccc3)[C@H](C)OC2=O)c1OC(C)=O [Compound F76],–,80 to 100,–,80 to 100,–,80 to 100,–,80 to 100,80 to 100,80 to 100
–,COc1ccnc(C(=O)N[C@H]2CCC[C@H](CCC(C)C)[C@@H](OCC3CC3)[C@H](C)OC2=O)c1OC(C)=O [Compound F63],80 to 100,80 to 100,80 to 100,80 to 100,80 to 100,80 to 100,80 to 100,80 to 100,80 to 100,80 to 100
–,C=CCO[C@@H]1[C@@H](Cc2ccc(F)cc2)CCC[C@H](NC(=O)c2nccc(OC)c2OCOC(=O)COCC)C(=O)O[C@H]1C [Compound F166],80 to 100,80 to 100,80 to 100,80 to 100,80 to 100,80 to 100,80 to 100,80 to 100,80 to 100,0 to 80
–,COc1ccnc(C(=O)N[C@H]2CCC[C@H](C)[C@@H](Oc3ccccc3)[C@H](C)OC2=O)c1OCOC(C)=O [Compound F124],80 to 100,80 to 100,80 to 100,80 to 100,80 to 100,80 to 100,80 to 100,80 to 100,80 to 100,80 to 100
–,CCOCC(=O)OCOc1c(OC)ccnc1C(=O)N[C@H]1CCC[C@H](CCC(C)C)[C@@H](OCC2CC2)[C@H](C)OC1=O [Compound F160],80 to 100,80 to 100,80 to 100,80 to 100,80 to 100,80 to 100,80 to 100,80 to 100,80 to 100,80 to 100
–,COc1ccnc(C(=O)N[C@H]2CCC[C@H](CC3CCCC3)[C@@H](OC(=O)C(C)C)[C@H](C)OC2=O)c1OCOC(C)=O [Compound F121],80 to 100,80 to 100,80 to 100,80 to 100,80 to 100,80 to 100,80 to 100,80 to 100,80 to 100,0 to 80
